# From patent US20240059703A1 (AMGEN INC., priority 2021, published 2024)
# Where two headings read alike, the source gives them in different places.
# Columns and labels:
# [1] = system: A549 (human lung carcinoma) cells; experiment: Cell Viability Assay (CellTiter-Glo), A549; type: cell-based
# Protocol: MIA PaCa-2 (human pancreatic carcinoma; ATCC CRL-1420) or A549 (human lung carcinoma; ATCC CCL-185) cells were cultured in RPMI 1640 medium containing 10% fetal bovine serum and 1× penicillin/streptomycin/L-glutamine. Cells were seeded in 384-well plates at a density of 1.67E+04 cells/mL and incubated at 37° C., 5% CO2, overnight. Serially-diluted compound or DMSO was added to the cells, and plates were incubated at 37° C., 5% CO2 for 72 h. Cell viability was measured using a CellTiter-Glo® Luminescent Cell Viability Assay kit (Promega) according to the manufacturer's protocol. The luminescence signal of treated samples was normalized to DMSO control, and data were analyzed using a 4-parameter logistic model to calculate IC50 values.
# [2] = system: MIA PaCa-2 (human pancreatic carcinoma) cells; experiment: Cell Viability Assay (CellTiter-Glo), MIA PaCa-2; type: cell-based
# Protocol: Serially-diluted compound or DMSO was added to the cells, and plates were incubated at 37° C., 5% CO2 for 72 h. Cell viability was measured using a CellTiter-Glo® Luminescent Cell Viability Assay kit (Promega) according to the manufacturer's protocol. The luminescence signal of treated samples was normalized to DMSO control, and data were analyzed using a 4-parameter logistic model to calculate IC50 values.
# KRAS G12C = KRAS G12C (Homo sapiens (Human), UniProt P01116, C118A/G12C); experiment: 2 h coupled exchange assay; type: biochemical
# Protocol: The term “2 h coupled exchange assay” or “20 h coupled exchange assay” as used herein refers to the assay described in the Section entitled “BIOLOGICAL EVALUATION.”
# [3] = Avg 2 h Coupled exchange IC50, 2 h compound pre-incubation
# [4] = Avg 2 h Coupled exchange IC50, 2 h compound pre-incubation, SOS-mediated nucleotide exchange
# [5] = read-out: Avg 2 h Coupled exchange IC50, 2 h compound pre-incubation, SOS-mediated nucleotide exchange
Molecule,"IC50 ([1]; Homo sapiens, A549, 72 h) [nM]","IC50 ([2]; Homo sapiens, MIA PaCa-2, 72 h) [nM]",IC50 (KRAS G12C; [3]) [nM],IC50 (KRAS G12C; [4]) [nM],IC50 ([1]; 72 h) [nM],IC50 ([2]; 72 h) [nM],IC50 (KRAS G12C; [5]) [nM]
"C=CC(=O)N1CC2(CCN(c3nc4c(c(-c5cccc(C)c5C)n3)CC[C@@H](c3scnc3C)C4)C2)C1 (single isomer, unassigned) [Example 22-1]",> 5000,585,38,–,–,–,–
"C=CC(=O)N1CC2(CCN(c3nc4c(c(-c5c(C(C)C)ccc6[nH]ncc56)n3)CCCC4)C2)C1 [Example 1-35, 1-(6-(4-(5-(2-propanyl)-1H-indazol-4-yl)-5,6,7,8-tetrahydro-2-quinazolinyl)-2,6-diazaspiro[3.4]octan-2-yl)-2-propen-1-one]",7120,2370,–,1550,–,–,–
"C=CC(=O)N1CC2(CCN(c3nc4c(c(-c5c(C)ccc6[nH]ncc56)c3C#N)COC3(CCOCC3)C4)C2)C1 [Example 13-50, 4′-(5-methyl-1H-indazol-4-yl)-2′-(2-(2-propenoyl)-2,6-diazaspiro[3.4]octan-6-yl)-2,3,5,5′,6,8′-hexahydrospiro[pyran-4,7′-pyrano[4,3-b]pyridine]-3′-carbonitrile]",> 5000,198,–,76,–,–,–
"7,7-dimethyl-4-(5-methyl-1H-indazol-4-yl)-2-(2-((^2H3)-2-propenoyl)-2,6-diazaspiro[3.4]octan-6-yl)-5,6,7,8-tetrahydro-3-quinolinecarbonitrile [Example 13-1]",–,–,–,–,4890,65,36
"C=CC(=O)N1CC2(CCN(c3cc4c(ncn4C)c(-c4c(C)ccc5[nH]ncc45)c3C#N)C2)C1 [Example 7, 1-methyl-4-(5-methyl-1H-indazol-4-yl)-6-(2-(2-propenoyl)-2,6-diazaspiro[3.4]octan-6-yl)-1H-benzimidazole-5-carbonitrile]",> 5000,3420,–,879,–,–,–
"C=CC(=O)N1CC2(CCN(c3nc4c(c(-c5c(C)ccc6[nH]ncc56)c3C#N)CC[C@@H](C(F)(F)F)C4)C2)C1 (racemic) [Example 13-10, (7R)-4-(5-methyl-1H-indazol-4-yl)-2-(2-(2-propenoyl)-2,6-diazaspiro[3.4]octan-6-yl)-7-(trifluoromethyl)-5,6,7,8-tetrahydro-3-quinoline-carbonitrile|(7S)-4-(5-methyl-1H-indazol-4-yL)-2-(2-(2-propenoyl)-2,6-diazaspiro[3.4]octan-6-yl)-7-(trifluoromethyl)-5,6,7,8-tetrahydro-3-quinolinecarbonitrile]",–,–,–,–,> 5000,246,71
"C=CC(=O)N1CC2(CCN(c3nc4c(c(-c5ccccc5Cl)c3C#N)CCN(c3scnc3C)C4)C2)C1 (single isomer, unassigned) [Example 21-22, (P)-4-(2-chlorophenyl)-7-(4-methyl-1,3-thiazol-5-yl)-2-(2-(2-propenoyl)-2,6-diazaspiro[3.4]octan-6-yl)-5,6,7,8-tetrahydro-1,7-naphthyridine-3-carbonitrile]",> 5000,–,34,–,–,170,–
"C=CC(=O)N1CC2(CCN(c3nc4c(c(-c5cc(O)ccc5F)c3C#N)CCC(c3scnc3C)=C4)C2)C1 [Example 23-47, 4-(2-fluoro-5-hydroxyphenyl)-7-(4-methyl-1,3-thiazol-5-yl)-2-(2-(2-propenoyl)-2,6-diazaspiro[3.4]octan-6-yl)-5,6-dihydro-3-quinolinecarbonitrile]",> 5000,> 5000,44,–,–,–,–
"C=CC(=O)N1CC2(CCN(c3cc4c(c(-c5c(C)ccc6cnn(C)c56)c3C#N)OCCC4)C2)C1 [Example 2-101, 8-(1,6-dimethyl-1H-indazol-7-yl)-6-(2-(2-propenoyl)-2,6-diazaspiro[3.4]octan-6-yl)-3,4-dihydro-2H-chromene-7-carbonitrile]",13400,37,–,28,–,–,–
"C=CC(=O)N1CC2(CCN(c3nc(-c4ccccc4F)c4c(n3)N([C@H](CC(=O)NC)CC(C)C)CCC4)C2)C1 (single isomer, unassigned) [Example 10]",> 5000,3240,–,1680,–,–,–
"C=CC(=O)N1CC2(CCN(c3nc4c(c(-c5c(C(F)(F)F)ccc6[nH]ncc56)c3C#N)C[C@H]3C[C@@H]4C3(C)C)C2)C1 [Example 2-31, (1R,9R)-10,10-dimethyl-4-(2-(2-propenoyl)-2,6-diazaspiro[3.4]octan-6-yl)-6-(5-(trifluoromethyl)-1H-indazol-4-yl)-3-azatricyclo[7.1.1.0^2,7]undeca-2,4,6-triene-5-carbonitrile]",2780,54,–,53,–,–,–
"C=CC(=O)N1CC2(CCN(c3nc4c(c(-c5ccc(F)cc5F)c3C#N)COC(c3scnc3C)C4)C2)C1 [Example 23-17, (7R)-4-(2,4-difluorophenyl)-7-(4-methyl-1,3-thiazol-5-yl)-2-(2-(2-propenoyl)-2,6-diazaspiro[3.4]octan-6-yl)-7,8-dihydro-5H-pyrano[4,3-b]pyridine-3-carbonitrile (7S)-4-(2,4-difluorophenyl)-7-(4-methyl-1,3-thiazol-5-yl)-2-(2-(2-propenoyl)-2,6-diazaspiro[3.4]octan-6-yl)-7,8-dihydro-5H-pyrano[4,3-b]pyridine-3-carbonitrile]",> 5000,707,98,–,–,–,–
"C=CC(=O)N1CC2(CCN(c3nc4cc(-c5scnc5COC)ccc4c(-c4ccccc4F)c3C#N)C2)C1 [Example 20-16, 4-(2-fluorophenyl)-7-(4-(methoxymethyl)-1,3-thiazol-5-yl)-2-(2-(2-propenoyl)-2,6-diazaspiro[3.4]octan-6-yl)-3-quinolinecarbonitrile]",9150,817,124,–,–,–,–
"C=CC(=O)N1CC2(CCN(c3cc4c(c(-c5c(C)c(Cl)cc6cnn(C)c56)c3Cl)OCCC4)C2)C1 [Example 2-110, 1-(6-(7-chloro-8-(5-chloro-1,6-dimethyl-1H-indazol-7-yl)-3,4-dihydro-2H-chromen-6-yl)-2,6-diazaspiro[3.4]octan-2-yl)-2-propen-1-one]",> 5000,20,–,53,–,–,–
"C=CC(=O)N1CC2(CCN(c3nc4c(c(-c5c(C)c(C)cc6cnn(C)c56)c3C#N)COC(C)(C)C4)C2)C1 (single isomer, unassigned) [Example 13-92, (P)-7,7-dimethyl-2-(2-(2-propenoyl)-2,6-diazaspiro[3.4]octan-6-yl)-4-(1,5,6-trimethyl-1H-indazol-7-yl)-7,8-dihydro-5H-pyrano[4,3-b]pyridine-3-carbonitrile]",> 5000,9,–,13,–,–,–
"C=CC(=O)N1CC2(CCN(c3nc4c(c(-c5c(F)cccc5Cl)c3C#N)COC(c3scnc3C)C4)C2)C1 [Example 23-36, (7R)-4-(2-chloro-6-fluorophenyl)-7-(4-methyl-1,3-thiazol-5-yl)-2-(2-(2-propenoyl)-2,6-diazaspiro[3.4]octan-6-yl)-7,8-dihydro-5H-pyrano[4,3-b]pyridine-3-carbonitrile (7S)-4-(2-chloro-6-fluorophenyl)-7-(4-methyl-1,3-thiazol-5-yl)-2-(2-(2-propenoyl)-2,6-diazaspiro[3.4]octan-6-yl)-7,8-dihydro-5H-pyrano[4,3-b]pyridine-3-carbonitrile]",9320,1530,272,–,–,–,–
"C=CC(=O)N1CC2(CCN(c3nc4c(c(-c5ccc(F)c6sc(N)nc56)c3C)CCC(C)(C)C4)C2)C1 (single isomer, unassigned) [Example 2-17]",> 5000,155,–,64,–,–,–
